Reference: US11413278B2, “Compounds and methods for promoting stress resistance” (priority 2015, dated 2022)
Several values for one entry are separate records, joined by “and”; a condition that tells them apart may be missing. Equal entries are not always repeated.

How the values were obtained:
[1] = target: T1, SENP7 (Homo sapiens, UniProt Q9BQF6); conditions: 2 screens; 5.0 μM or 12. μM; cited from earlier work
T1 sequence (Q9BQF6 1-1050): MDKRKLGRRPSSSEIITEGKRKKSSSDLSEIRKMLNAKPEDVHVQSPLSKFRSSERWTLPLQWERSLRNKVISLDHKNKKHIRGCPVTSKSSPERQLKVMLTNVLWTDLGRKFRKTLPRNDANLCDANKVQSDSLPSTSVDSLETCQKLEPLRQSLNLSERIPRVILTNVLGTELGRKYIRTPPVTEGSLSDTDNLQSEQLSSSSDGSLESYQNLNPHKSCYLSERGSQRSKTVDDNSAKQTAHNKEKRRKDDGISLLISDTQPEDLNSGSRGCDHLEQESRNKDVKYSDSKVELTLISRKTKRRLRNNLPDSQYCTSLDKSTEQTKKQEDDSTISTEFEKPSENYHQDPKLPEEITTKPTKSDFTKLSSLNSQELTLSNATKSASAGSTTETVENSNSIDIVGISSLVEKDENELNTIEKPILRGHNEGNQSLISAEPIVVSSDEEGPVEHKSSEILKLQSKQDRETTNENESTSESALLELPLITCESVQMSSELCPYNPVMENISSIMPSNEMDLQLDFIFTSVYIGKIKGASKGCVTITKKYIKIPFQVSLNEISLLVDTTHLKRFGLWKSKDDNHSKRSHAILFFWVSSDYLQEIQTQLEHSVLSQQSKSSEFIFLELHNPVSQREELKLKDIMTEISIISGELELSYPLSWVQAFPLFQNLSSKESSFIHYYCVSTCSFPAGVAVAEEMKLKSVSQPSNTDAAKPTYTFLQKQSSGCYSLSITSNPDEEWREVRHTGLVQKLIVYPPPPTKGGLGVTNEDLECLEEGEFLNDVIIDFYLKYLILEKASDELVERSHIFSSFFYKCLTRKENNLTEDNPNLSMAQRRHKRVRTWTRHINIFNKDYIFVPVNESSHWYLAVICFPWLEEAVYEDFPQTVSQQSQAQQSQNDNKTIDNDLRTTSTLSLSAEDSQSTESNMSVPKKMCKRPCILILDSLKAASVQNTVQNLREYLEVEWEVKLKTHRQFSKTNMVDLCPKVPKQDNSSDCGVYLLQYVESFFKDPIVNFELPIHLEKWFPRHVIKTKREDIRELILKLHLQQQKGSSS

[2] = target: T2, SENP6 (Homo sapiens, UniProt Q9GZR1); conditions: 2 screens; 10.0 μM or 12. μM; cited from earlier work
T2 sequence (Q9GZR1 1-1112): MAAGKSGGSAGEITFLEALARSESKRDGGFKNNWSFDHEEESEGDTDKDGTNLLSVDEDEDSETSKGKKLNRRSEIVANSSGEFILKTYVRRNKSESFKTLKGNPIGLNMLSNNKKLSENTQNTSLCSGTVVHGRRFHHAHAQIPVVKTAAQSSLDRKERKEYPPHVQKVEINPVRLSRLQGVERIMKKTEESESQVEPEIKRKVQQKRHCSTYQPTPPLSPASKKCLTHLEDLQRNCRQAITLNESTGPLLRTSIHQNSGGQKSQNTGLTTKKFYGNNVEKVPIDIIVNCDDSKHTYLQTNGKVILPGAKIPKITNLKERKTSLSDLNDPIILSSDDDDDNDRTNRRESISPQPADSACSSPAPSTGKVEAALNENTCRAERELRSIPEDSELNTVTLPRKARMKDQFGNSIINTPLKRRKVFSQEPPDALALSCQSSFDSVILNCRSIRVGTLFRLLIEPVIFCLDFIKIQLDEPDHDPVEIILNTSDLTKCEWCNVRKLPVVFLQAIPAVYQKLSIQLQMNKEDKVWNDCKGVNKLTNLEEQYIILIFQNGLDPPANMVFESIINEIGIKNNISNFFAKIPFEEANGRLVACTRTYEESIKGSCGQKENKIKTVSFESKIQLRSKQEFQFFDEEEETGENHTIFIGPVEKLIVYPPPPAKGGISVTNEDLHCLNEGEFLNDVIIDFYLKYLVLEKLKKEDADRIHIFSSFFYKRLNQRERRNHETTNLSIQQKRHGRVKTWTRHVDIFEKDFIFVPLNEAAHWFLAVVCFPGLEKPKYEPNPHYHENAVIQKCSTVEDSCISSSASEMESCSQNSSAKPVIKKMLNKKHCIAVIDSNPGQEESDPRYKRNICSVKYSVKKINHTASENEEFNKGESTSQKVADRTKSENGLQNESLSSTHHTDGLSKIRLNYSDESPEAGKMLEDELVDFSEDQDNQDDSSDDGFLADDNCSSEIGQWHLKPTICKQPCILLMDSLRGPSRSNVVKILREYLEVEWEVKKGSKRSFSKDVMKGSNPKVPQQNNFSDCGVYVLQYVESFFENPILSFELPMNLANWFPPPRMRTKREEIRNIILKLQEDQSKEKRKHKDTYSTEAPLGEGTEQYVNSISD

[3] = target: T3, SENP8 (Homo sapiens, UniProt Q96LD8); conditions: Gr-1F: 3 screens, 10.0 μM to 12. μM; O13: 1 screen, 20. μM; cited from earlier work
T3 sequence (Q96LD8 1-212): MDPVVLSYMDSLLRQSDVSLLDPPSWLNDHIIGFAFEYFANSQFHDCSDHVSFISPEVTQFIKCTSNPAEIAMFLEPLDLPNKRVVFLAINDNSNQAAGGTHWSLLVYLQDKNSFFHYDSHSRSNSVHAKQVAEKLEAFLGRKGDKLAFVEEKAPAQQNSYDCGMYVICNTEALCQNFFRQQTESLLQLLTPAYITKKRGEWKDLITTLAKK

[4] = tested on: NFKBIA; conditions: two screens; read-out: NFKBIA induction, EC50; cited from earlier work
[5] = tested on: DNA; assay: Comet assay (DNA damage); assay type: cell-based; conditions: preliminary analysis
[6] = tested on: two breast cancer-derived tumor cell lines; assay: Viability of breast cancer-derived tumor cell lines; assay type: cell-based; conditions: 5 μM

| Compound | SENP6 inhibition [2] [%] | SENP8 inhibition [3] | EC50 [4] | other results |
| --- | --- | --- | --- | --- |
| Cc1ccc(NC(=O)c2ccc([N+](=O)[O-])o2)cc1C [Gr-1F] | ~80 | 60%-80% | – | SENP7 inhibition [1]: ~90% |
| O=[N+]([O-])c1ccccc1S(=O)(=O)Nc1cccc2cccnc12 [Gr-3A] | – | – | 11 µM and 12 µM | – |
| Nc1ccccc1S(=O)(=O)Nc1cccc2cccnc12 [Gr-3C] | – | – | 8.5 µM and 11 µM | – |
| O=C(NCc1cccnc1)/C(=C\c1cccc(Oc2ccccc2)c1)S(=O)(=O)c1ccccc1 [Gr-7A] | – | – | – | Fraction of damaged DNA with long comet tails [5]: significantly increased the fraction of damaged DNA with long comet tails |
| O=C(c1ccc([N+](=O)[O-])o1)N1CCc2ccccc21 [O13] | ~50 | ~50% | – | – |
| [O-][n+]1onc2c3nsnc3c(Br)cc21 [O17] | – | – | – | Cell viability in two breast cancer-derived tumor cell lines [6]: significantly reduce cell viability |
